Reference: patent US9815851B2, “Pyrrolo carboxamides as modulators of orphan nuclear receptor RAR-related orphan receptor-gamma (RORγ, NR1F3) activity and for the treatment of chronic inflammatory and autoimmune diseases” (PHENEX PHARMACEUTICALS AG, priority 2011, dated 2017)
Where two headings read alike, the source gives them in different places.

Legend:
[1] = target: T1, RORγ ligand binding domain (LBD) (Homo sapiens, UniProt P51449); assay: TR-FRET Activity Assay (ligand sensing, RORγ-LBD / coactivator peptide interaction, LANCE); type: biochemical
T1 construct: made in house; host or cells: E. coli BL-21 (BL3), vector pDEST15
T1 sequence (P51449 269-508 limits assumed): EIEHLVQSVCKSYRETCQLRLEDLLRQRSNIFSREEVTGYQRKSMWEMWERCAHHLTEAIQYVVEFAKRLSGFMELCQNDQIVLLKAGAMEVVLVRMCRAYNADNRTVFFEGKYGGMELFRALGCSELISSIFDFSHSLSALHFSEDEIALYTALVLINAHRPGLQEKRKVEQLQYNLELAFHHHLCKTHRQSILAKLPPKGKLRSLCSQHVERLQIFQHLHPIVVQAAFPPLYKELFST

RORγ = target: T2, RORγ (UniProt P51449); assay: RORγ Gal4 Reporter Gene Assay in 293T cells (firefly and renilla luciferase); type: cell-based, human
T2 sequence (P51449 1-518): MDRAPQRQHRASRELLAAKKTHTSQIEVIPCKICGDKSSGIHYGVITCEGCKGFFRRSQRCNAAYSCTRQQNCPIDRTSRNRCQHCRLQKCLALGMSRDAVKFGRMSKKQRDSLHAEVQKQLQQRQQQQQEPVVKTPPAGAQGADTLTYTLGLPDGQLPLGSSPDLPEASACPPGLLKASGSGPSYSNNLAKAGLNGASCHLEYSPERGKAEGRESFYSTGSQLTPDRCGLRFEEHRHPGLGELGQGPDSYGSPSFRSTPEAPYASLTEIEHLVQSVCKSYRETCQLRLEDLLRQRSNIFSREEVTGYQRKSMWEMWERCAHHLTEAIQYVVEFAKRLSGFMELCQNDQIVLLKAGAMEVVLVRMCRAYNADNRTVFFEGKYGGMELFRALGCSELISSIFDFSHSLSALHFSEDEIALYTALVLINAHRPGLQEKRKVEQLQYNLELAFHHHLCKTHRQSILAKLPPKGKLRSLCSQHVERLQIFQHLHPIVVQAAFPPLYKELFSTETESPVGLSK

[2] = first value of the cell FRET/FF/REN, TR-FRET activity assay, read-out: pIC50 (FRET) (converted)
[3] = second value of the cell, Gal4 reporter gene assay in 293T cells, firefly luciferase
[4] = third value of the cell, Gal4 reporter gene assay in 293T cells, renilla normalised luciferase

Row | Compound | IC50 [1, 2] [nM] | pIC50 (FF) (RORγ; [3]) | pIC50 (REN) (RORγ; [4]) | IC50 [1] [nM] | pIC50 (FF) (RORγ) | pIC50 (REN) (RORγ)
1 | Cc1c(C(=O)NC2CCOCC2)cc(-c2ccc(S(=O)(=O)N3CCCCC3(C)C)c(C(F)(F)F)c2)n1CC1CCCCC1 [17/69] | > 20000 | 7.2 | 7.4 |  |  | 
2 | Cc1c(C(=O)NCC(C)(C)O)cc(-c2ccc(S(=O)(=O)NC(C)(C)C)c3ccccc23)n1CC1CCC(F)(F)CC1 [17/278] | 2510 | 7.0 | 7.0 |  |  | 
3 | CCC(C)(C)NS(=O)(=O)c1ccc(-c2cc(C(=O)NC3CCOCC3)c(C)n2CC2CCC2)cc1C(F)(F)F [17/217] | 126 | 7.6 | 7.7 |  |  | 
4 | CC(C)(C)NS(=O)(=O)c1ccc(-c2cc(C(=O)N[C@H]3C[C@H](C(=O)O)C3)c(Cl)n2CC2CCCCC2)c2ccccc12 [22/2] | 398 | 8.1 | 8.0 |  |  | 
5 | Cc1c(C(=O)NCC(C)(C)O)cc(-c2cc(C(C)(C)C)cc(C3(C)CC3)c2)n1CC1CCCCC1 [1/87] |  |  |  | 316 | 6.5/7.2/7.2 | 6.5/7.2/7.2
6 | Cc1c(C(=O)NC2CCOCC2)cc(-c2ccc(S(=O)(=O)NCC(F)(F)F)c(C(F)(F)F)c2)n1CC1CCCCC1 [17/140] | 200 | 8.0 | 8.1 |  |  | 
7 | Cc1c(C(=O)NCC(C)(C)NC(=O)CCO)cc(-c2cc(C(C)(C)C)c3c(c2)C2(CCO3)CC2)n1CC1CCCCC1 [17/31] |  |  |  | 1000 | 6.0/7.3/7.3 | 6.0/7.3/7.3
8 | Cc1c(C(=O)NCCN2CCOCC2)cc(-c2ccc(S(=O)(=O)NC(C)(C)C)c(C(C)(C)C)c2)n1CC1CCCCC1 [1/11] | 2000 | 6.1 | 6.1 |  |  | 
9 | Cc1c(C(=O)NCC2CCOCC2)cc(-c2cc(C(C)(C)C)cc(C3(C)CC3)c2)n1CC1CCCCC1 [17/63] |  |  |  | 200 | 6.7/7.7/7.6 | 6.7/7.7/7.6
10 | Cc1c(C(=O)N(C)C2CCOCC2)cc(-c2ccc(S(=O)(=O)NC(C)(C)C)c(C(C)(C)C)c2)n1CC1CCCCC1 [17/95] | 631 | 7.8 | 7.7 |  |  | 
11 | Cc1c(C(N)=O)cc(-c2cc(C(C)(C)C)cc(C(C)(C)C)c2)n1S(=O)(=O)N1CCCCC1 [7/8] | 501 | 6.0 | 6.2 |  |  | 
12 | Cc1c(C(=O)NC2COC2)cc(-c2cc(C(F)(F)F)cc(C3(C)CC3)c2)n1CC1CCCCC1 [1/79] | 398 | 7.2 | 7.2 |  |  | 
13 | Cc1c(C(=O)NCC2(O)CCOCC2)cc(-c2cc(C(C)(C)C)c3c(c2)C2(CCO3)CC2)n1CC1CCCCC1 [1/99] |  |  |  | 398 | 6.4/7.1/7.2 | 6.4/7.1/7.2
14 | Cc1c(C(=O)NC2CCOCC2)cc(-c2ccc(S(=O)(=O)NC3(C#N)CC3)c(C(F)(F)F)c2)n1CC1CCCCC1 [17/144] | 501 | 7.7 | 7.7 |  |  | 
15 | Cc1c(C(=O)NC2CCOCC2)cc(-c2cc(NCC(C)(C)C)nc(C(F)(F)F)c2)n1CC1CCCCC1 [17/159] | 1580 | 6.8 | 6.9 |  |  | 
16 | Cc1c(C(=O)NCCCCCN2CCOCC2)cc(-c2cc(C(C)(C)C)cc(C(C)(C)C)c2)n1CC1CCCCC1 [1/75] |  |  |  | 4900 | 5.31/<4.7<4.7 | 5.31/<4.7<4.7
